A short description of data set [1]: Blood stability studies in freshly collected rat blood. Type of data set: in vitro ADME. On the set-up: unit not given here. As for the experimental part: Blood stability studies: Compounds were incubated at 37° C. in freshly collected rat blood. At selected time points, duplicate aliquots of the whole blood were sampled, centrifuged and the plasma assayed for parent compound by LC-MS.

Another data set relates to P. berghei. The experiment in a line: Prophylactic activity against P. berghei in vivo (mice dosed before infection). To be noted: for Cures 24 h prior to infection (30 mg/kg) / Activity (%) 24 h prior to infection (30 mg/kg): single 30 mg/kg oral dose 24 h prior to infection; for Cures 24 h prior to infection (30 mg/kg) / Cures 48 h prior to infection (100 mg/kg) / Cures 72 h prior to infection (100 mg/kg) / Cures 96 h prior to infection (100 mg/kg): n=5 mice; for Activity (%) 24 h prior to infection (30 mg/kg) / Activity (%) 48 h prior to infection (100 mg/kg): parasitemia day 3 post-infection; for Cures 48 h prior to infection (100 mg/kg) / Activity (%) 48 h prior to infection (100 mg/kg): single 100 mg/kg oral dose 48 h prior to infection; for Activity (%) 72 h prior to infection (100 mg/kg) / Cures 72 h prior to infection (100 mg/kg): single 100 mg/kg oral dose 72 h prior to infection; for Activity (%) 96 h prior to infection (100 mg/kg) / Cures 96 h prior to infection (100 mg/kg): single 100 mg/kg oral dose 96 h prior to infection. As for the experimental part:
All groups (n=5 mice per group) including an untreated control group, were infected at the same time and parasitemia was determined for each animal on day 3 post-infection and compared with the level of parasitemia in control animals.

Data set [2] in a line: Pharmacokinetic studies in rats (oral). Type of data set: in vivo, rat. To be noted: oral 10 mg/kg; for Oral Bioavailability at 10 mg/kg (%): relative to an IV dose. As for the experimental part:
Pharmacokinetic studies in rats: Compounds were administered orally to rats (n=2) at a dose of 10 mg/kg in a suspension formulation containing hydroxypropylmethyl cellulose, Tween 80, benzyl alcohol, and water. […] Oral bioavailability for each compound was calculated relative to an IV dose for each compound in a suitable vehicle.

The subject of data set [3] is ANKA strain of P. berghei. The experiment in a line: Single dose in vivo screen in P. berghei-infected NMRI mice. To be noted: for Survival (days) 30 mg/kg SSV po / Activity (%) 30 mg/kg SSV po: single 30 mg/kg po dose in SSV one day post-infection; for Activity (%) 30 mg/kg SSV po: percent reduction in parasitemia on day three post-infection; for Cures 30 mg/kg SSV po: single 30 mg/kg po dose in SSV, cure = survival to day 30 post-infection, groups of five mice. As for the experimental part: Activity of 1,2,4-trioxolanes against P. berghei in vivo. In the single dose in vivo screen, NMRI mice infected with the ANKA strain of P. berghei (groups of five mice) were treated one day post-infection with trioxolanes dissolved or suspended in standard suspending vehicle (SSV). The SSV consists of either 0.5% w/v carboxymethyl cellulose, 0.5% v/v benzyl alcohol, 0.4% v/v Tween 80, and 0.9% w/v sodium chloride in water or 0.5% hydroxypropylmethylcellulose 0.4% v/s Tween 80, and 0.5% v/v benzyl alcohol in water. […] Antimalarial activity was measured by percent reduction in parasitemia on day three post-infection and survival times compared to an untreated control group. Survival to day 30 post-infection is considered to be a cure in this model.

Molecules are shown by their SMILES.

As for `CC(C)(CN)Oc1ccc(C2CCC3(CC2)OOC2(O3)C3CC4CC(C3)CC2C4)cc1.CS(=O)(=O)O` (centres unmarked) [OZ453], in data set [1], the “Stability in Rat Blood (t1/2) at 37° C.” value was 6.1. In addition, in the data set on P. berghei, the “Cures 24 h prior to infection (30 mg/kg)” value was 0/5, the “Activity (%) 24 h prior to infection (30 mg/kg)” value (shortened to “Activity (%) 24 h prior”) turned out to be 99.9%, the “Cures 48 h prior to infection (100 mg/kg)” value (from here on “Cures 48 h prior”) is recorded as 5/5 and the “Activity (%) 48 h prior to infection (100 mg/kg)” value (“Activity (%) 48 h prior” for short) was determined as 99.7%.
In the case of `NCCOc1ccc([C@H]2CC[C@]3(CC2)OO[C@]2(O3)C3CC4CC(C3)CC2C4)cc1` [OZ323, reference compound], the “Stability in Rat Blood (t1/2) at 37° C.” value in data set [1] was found to be 7.7. Moreover, in data set [2], the “In Vivo Oral t1/2 at 10 mg/kg” value is on record as 5.2 h and the “Oral Bioavailability at 10 mg/kg (%)” value is on record as 100%. In the data set on P. berghei, the “Cures 24 h prior to infection (30 mg/kg)” value was 0/5, the “Activity (%) 24 h prior” value is 99.7%, the “Cures 48 h prior” value was 5/5 and the “Activity (%) 48 h prior” value was 99.5%. Also, in the data set on P. berghei, the “Activity (%) 72 h prior to infection (100 mg/kg)” value (“Activity (%) 72 h prior” below) is listed as above 99.9%, the “Cures 72 h prior to infection (100 mg/kg)” value (“Cures 72 h prior” for short) is given as 1/5, the “Activity (%) 96 h prior to infection (100 mg/kg)” value (shortened to “Activity (%) 96 h prior”) amounted to 90% and the “Cures 96 h prior to infection (100 mg/kg)” value (shortened to “Cures 96 h prior”) is listed as 0/5.
With `CC(C)(O)CNCCCOc1ccc([C@H]2CC[C@]3(CC2)OOC2(O3)C3CC4CC(C3)CC2C4)cc1.Cc1ccc(S(=O)(=O)O)cc1` (some centres unmarked) [OZ505], in the data set on P. berghei, the “Cures 24 h prior to infection (30 mg/kg)” value was 2/5, the “Activity (%) 24 h prior” value is above 99.9%, the “Cures 48 h prior” value is on record as 5/5 and the “Activity (%) 48 h prior” value was determined as 99.5%.
Regarding `CS(=O)(=O)O.c1cc(C2CCC3(CC2)OOC2(O3)C3CC4CC(C3)CC2C4)ccc1OCCN1CCSCC1` (centres unmarked) [OZ460], in data set [3], the “Survival (days) 30 mg/kg SSV po” value is 25.0 days, the “Activity (%) 30 mg/kg SSV po” value is 99% and the “Cures 30 mg/kg SSV po” value was 3/5. Besides, in the data set with P. berghei, the “Cures 24 h prior to infection (30 mg/kg)” value is on record as 3/5, the “Activity (%) 24 h prior” value was 99.8%, the “Cures 48 h prior” value is given as 5/5 and the “Activity (%) 48 h prior” value is given as 99.6%.
For `O[C@H]1CC[C@@H](C2CCC3(CC2)OOC2(O3)C3CC4CC(C3)CC2C4)CC1` (some centres unmarked) [OZ508], in data set [3], the “Survival (days) 30 mg/kg SSV po” value came out at 24.4 days, the “Activity (%) 30 mg/kg SSV po” value was determined as 99.8% and the “Cures 30 mg/kg SSV po” value is recorded as 3/5. For the same compound, in the data set on P. berghei, the “Cures 24 h prior to infection (30 mg/kg)” value is on record as 4/5, the “Activity (%) 24 h prior” value worked out at 99.7%, the “Cures 48 h prior” value is reported as 4/5 and the “Activity (%) 48 h prior” value is given as 99.8%.
With `CS(=O)(=O)N1CCN(CCCOc2ccc([C@H]3CC[C@]4(CC3)OOC3(O4)C4CC5CC(C4)CC3C5)cc2)CC1.Cc1ccc(S(=O)(=O)O)cc1` (some centres unmarked) [OZ482], the “Stability in Rat Blood (t1/2) at 37° C.” value in data set [1] is listed as above 17. In data set [2], the “In Vivo Oral t1/2 at 10 mg/kg” value was 9.6 h and the “Oral Bioavailability at 10 mg/kg (%)” value worked out at 100%. In addition, in the data set on P. berghei, the “Cures 24 h prior to infection (30 mg/kg)” value was 3/5, the “Activity (%) 24 h prior” value is given as above 99.9%, the “Cures 48 h prior” value was 5/5 and the “Activity (%) 48 h prior” value was above 99.9%. For the same compound, in the data set on P. berghei, the “Activity (%) 72 h prior” value was determined as 99.6%, the “Cures 72 h prior” value is 4/5, the “Activity (%) 96 h prior” value turned out to be 99.6% and the “Cures 96 h prior” value is on record as 3/5.
As to `CS(=O)(=O)O.c1cc([C@H]2CC[C@]3(CC2)OOC2(O3)C3CC4CC(C3)CC2C4)ccc1OCCCN1CCOCC1` (some centres unmarked) [OZ461], the “Oral Bioavailability at 10 mg/kg (%)” value in data set [2] is recorded as 71%. Besides, in the data set on P. berghei, the “Cures 24 h prior to infection (30 mg/kg)” value is listed as 5/5, the “Activity (%) 24 h prior” value worked out at 99.9%, the “Cures 48 h prior” value was 5/5 and the “Activity (%) 48 h prior” value was 99.7%. In the data set with P. berghei, the “Activity (%) 72 h prior” value worked out at 99.6%, the “Cures 72 h prior” value is 5/5, the “Activity (%) 96 h prior” value was 99.4% and the “Cures 96 h prior” value is given as 4/5.
On to `Cc1ccc(S(=O)(=O)O)cc1.O[C@H]1CC[C@H](NCCCOc2ccc([C@H]3CC[C@]4(CC3)OOC3(O4)C4CC5CC(C4)CC3C5)cc2)CC1` (some centres unmarked) [OZ535], for which, in the data set on P. berghei, the “Cures 24 h prior to infection (30 mg/kg)” value was 0/5, the “Activity (%) 24 h prior” value was above 99.9%, the “Cures 48 h prior” value is given as 5/5 and the “Activity (%) 48 h prior” value is above 99.9%.
On to `CS(=O)(=O)O.NCCCCCOc1ccc(C2CCC3(CC2)OOC2(O3)C3CC4CC(C3)CC2C4)cc1` (centres unmarked) [OZ498], for which, in the data set with P. berghei, the “Cures 24 h prior to infection (30 mg/kg)” value is 4/5, the “Activity (%) 24 h prior” value stood at 99.8%, the “Cures 48 h prior” value is recorded as 5/5 and the “Activity (%) 48 h prior” value is 99.8%.
Consider `O=C1CCC([C@H]2CC[C@]3(CC2)OOC2(O3)C3CC4CC(C3)CC2C4)CC1` (some centres unmarked) [OZ495], for which, in data set [3], the “Survival (days) 30 mg/kg SSV po” value is given as 26.8 days, the “Activity (%) 30 mg/kg SSV po” value is reported as 99.3% and the “Cures 30 mg/kg SSV po” value is listed as 3/5. Also, in the data set on P. berghei, the “Cures 24 h prior to infection (30 mg/kg)” value is 1/5, the “Activity (%) 24 h prior” value was above 99.9%, the “Cures 48 h prior” value is recorded as 0/5 and the “Activity (%) 48 h prior” value was above 99.9%.
`C[C@H]1[C@H](OC(=O)CCC(=O)O)O[C@@H]2O[C@@]3(C)CC[C@H]4[C@H](C)CC[C@@H]1[C@@]24OO3` [AS, artesunate, reference compound]: in data set [3], the “Survival (days) 30 mg/kg SSV po” value was determined as 9.0 days, the “Activity (%) 30 mg/kg SSV po” value came to 92% and the “Cures 30 mg/kg SSV po” value is 0/5. Moreover, in the data set with P. berghei, the “Cures 24 h prior to infection (30 mg/kg)” value is listed as 0/5, the “Activity (%) 24 h prior” value is given as 21%, the “Cures 48 h prior” value is given as 0/5 and the “Activity (%) 48 h prior” value was determined as 0%.
As for `OC1CCN(CCOc2ccc([C@H]3CC[C@]4(CC3)OOC3(O4)C4CC5CC(C4)CC3C5)cc2)CC1` (some centres unmarked) [OZ513], in the data set with P. berghei, the “Cures 24 h prior to infection (30 mg/kg)” value is reported as 1/5, the “Activity (%) 24 h prior” value is on record as 99.9%, the “Cures 48 h prior” value is 5/5 and the “Activity (%) 48 h prior” value came to 99.7%.
Regarding `NC[C@H]1CC[C@]2(CC1)OOC1(O2)C2CC3CC(C2)CC1C3` (some centres unmarked) [OZ209, reference compound], the “Stability in Rat Blood (t1/2) at 37° C.” value in data set [1] is on record as 0.8. Besides, in data set [2], the “In Vivo Oral t1/2 at 10 mg/kg” value is reported as 1.2 h and the “Oral Bioavailability at 10 mg/kg (%)” value is 12%.
For the compound `CS(=O)(=O)N1CCN(CCOc2ccc([C@H]3CC[C@]4(CC3)OOC3(O4)C4CC5CC(C4)CC3C5)cc2)CC1.CS(=O)(=O)O` (some centres unmarked) [OZ485], in the data set on P. berghei, the “Cures 24 h prior to infection (30 mg/kg)” value was 3/5, the “Activity (%) 24 h prior” value is on record as above 99.9%, the “Cures 48 h prior” value was 5/5 and the “Activity (%) 48 h prior” value is reported as above 99.9%.
Regarding `CC(C)(N)CCOc1ccc(C2CCC3(CC2)OOC2(O3)C3CC4CC(C3)CC2C4)cc1.Cc1ccc(S(=O)(=O)O)cc1` (centres unmarked) [OZ539], in data set [3], the “Survival (days) 30 mg/kg SSV po” value was 25.2 days, the “Activity (%) 30 mg/kg SSV po” value is given as 99.7% and the “Cures 30 mg/kg SSV po” value was 3/5. Besides, the “Malaria-curative with a single dose” value in data set [3] (single dose, dose not stated) was “malaria-curative in some instances with a single dose”. Moreover, in the data set on P. berghei, the “Cures 24 h prior to infection (30 mg/kg)” value is 4/5, the “Activity (%) 24 h prior” value is given as above 99.9%, the “Cures 48 h prior” value was 5/5 and the “Activity (%) 48 h prior” value is on record as above 99.9%.

Source of the values: patent publication US8067620B2, “Dispiro 1,2,4-trioxolane antimalarials” (Medicines for Malaria Venture MMV, priority 2005, dated 2011).
